Patent US20180273534A1, “PYRAZOLOPYRIDINE SULFONAMIDES AS NEMATICIDES” (BAYER CROPSCIENCE AKTIENGESELLSCHAFT, priority 2014, published 2018)
Several values for one entry are separate records, joined by “and”; a condition that tells them apart may be missing. Identical values can stand only once.

System: Meloidogyne incognita
Test: Meloidogyne incognita test (sand, salad seedlings, gall formation)
Assay type: in vivo
Settings: application rate 20 ppm, after 14 days, 100% = no galls, 0% = galls equal to untreated control
Procedure: Meloidogyne Incognita—Test
Solvent: 125.0 parts by weight of acetone
To produce a suitable preparation of active compound, 1 part by weight of active compound is mixed with the stated amount of solvent, and the concentrate is diluted with water to the desired concentration.
Vessels are filled with sand, a solution of the active ingredient, a suspension containing eggs and larvae of the southern root-knot nematode (Meloidogyne incognita) and salad seeds. The salad seeds germinate and the seedlings grow. Galls develop in the roots.
After 14 days the nematicidal activity is determined on the basis of the percentage of gall formation. 100% means no galls were found and 0% means the number of galls found on the roots of the treated plants was equal to that in untreated control plants.

SMILES	nematicidal activity on the basis of the percentage of gall formation
O=C(NS(=O)(=O)c1ccccc1Cl)c1cc2cc(C(F)(F)F)ccn2n1 [Example I-1, N-[(2-chlorophenyl)sulfonyl]-5-(trifluoromethyl)pyrazolo[1,5-a]pyridine-2-carboxamide]	100%
O=C(NS(=O)(=O)c1ncc(C(F)(F)F)cc1Cl)c1cc2c(Cl)cc(C(F)(F)F)cn2n1 [Example I-2]	90%
COc1ccc(Cl)c(S(=O)(=O)NC(=O)c2cc3c(Cl)cc(C(F)(F)F)cn3n2)c1 [Example I-3]	100% and 90%
O=C(NS(=O)(=O)c1ccccc1C(F)(F)F)c1cc2c(Cl)cc(C(F)(F)F)cn2n1 [Example I-4]	90%
O=C(NS(=O)(=O)c1ccccc1OC(F)(F)F)c1cc2c(Cl)cc(C(F)(F)F)cn2n1 [Example I-5]	90%
COc1ccccc1S(=O)(=O)NC(=O)c1cc2c(Cl)cc(C(F)(F)F)cn2n1 [Example I-8]	90%
O=C(NS(=O)(=O)c1ccc(Cl)cc1)c1cc2c(Cl)cc(C(F)(F)F)cn2n1 [Example I-9]	100% and 90%
Cc1ccccc1S(=O)(=O)NC(=O)c1cc2c(Cl)cc(C(F)(F)F)cn2n1 [Example I-10]	90%
O=C(NS(=O)(=O)c1cccc(Cl)c1)c1cc2c(Cl)cc(C(F)(F)F)cn2n1 [Example I-12]	90%
O=C(NS(=O)(=O)c1cc2c(cc1Cl)OC(F)(F)O2)c1cc2c(Cl)cc(C(F)(F)F)cn2n1 [Example I-14]	90%
CCS(=O)(=O)NC(=O)c1cc2c(Cl)cc(C(F)(F)F)cn2n1 [Example I-16]	100%
O=C(NS(=O)(=O)C1CC1)c1cc2c(Cl)cc(C(F)(F)F)cn2n1 [Example I-17]	100%
O=C(NS(=O)(=O)c1c(Cl)cccc1Cl)c1cc2c(Cl)cc(C(F)(F)F)cn2n1 [Example I-18]	100%
O=C(NS(=O)(=O)c1ccccc1Cl)c1cc2cc(C(F)(F)F)cc(Cl)n2n1 [Example I-19]	100%
O=C(NS(=O)(=O)c1ccc(Cl)cc1)c1cc2cc(C(F)(F)F)cc(Cl)n2n1 [Example I-20]	90%
O=C(NS(=O)(=O)c1c(Cl)cccc1Cl)c1cc2cc(C(F)(F)F)cc(Cl)n2n1 [Example I-21]	100%
O=C(NS(=O)(=O)c1cc(Cl)ccc1Cl)c1cc2cc(C(F)(F)F)cc(Cl)n2n1 [Example I-22]	100%
COc1ccc(Cl)c(S(=O)(=O)NC(=O)c2cc3cc(C(F)(F)F)cc(Cl)n3n2)c1 [Example I-23]	100%
O=C(NS(=O)(=O)c1c(Cl)cccc1Cl)c1cc2cc(C(F)(F)F)ccn2n1 [Example I-25]	100%
O=C(NS(=O)(=O)c1cc(Cl)ccc1Cl)c1cc2cc(C(F)(F)F)ccn2n1 [Example I-26]	100%
COc1ccc(Cl)c(S(=O)(=O)NC(=O)c2cc3cc(C(F)(F)F)ccn3n2)c1 [Example I-27]	100%

SMILES	nematicidal activity on the basis of the percentage of gall formation
O=C(NS(=O)(=O)C1CC1)c1cc2cc(C(F)(F)F)ccn2n1 [Example I-29]	90%
O=C(NS(=O)(=O)c1cccc(Cl)c1)c1cc2cc(C(F)(F)F)cc(Cl)n2n1 [Example I-30]	100% and 90%
CCS(=O)(=O)NC(=O)c1cc2cc(C(F)(F)F)cc(Cl)n2n1 [Example I-32]	90%
O=C(NS(=O)(=O)c1cc(C(F)(F)F)ccc1Cl)c1cc2cc(C(F)(F)F)ccn2n1 [Example I-33]	100%
CCOc1ccc(Cl)c(S(=O)(=O)NC(=O)c2cc3cc(C(F)(F)F)ccn3n2)c1 [Example I-34]	100%
CCCOc1ccc(Cl)c(S(=O)(=O)NC(=O)c2cc3cc(C(F)(F)F)ccn3n2)c1 [Example I-35]	100%
CCc1ccc(Cl)c(S(=O)(=O)NC(=O)c2cc3cc(C(F)(F)F)ccn3n2)c1 [Example I-36]	100%
COc1ccc(Br)c(S(=O)(=O)NC(=O)c2cc3cc(C(F)(F)F)ccn3n2)c1 [Example I-37]	100%
COc1ccc(F)c(S(=O)(=O)NC(=O)c2cc3cc(C(F)(F)F)ccn3n2)c1 [Example I-38]	100%
CSc1cccc(Cl)c1S(=O)(=O)NC(=O)c1cc2cc(C(F)(F)F)ccn2n1 [Example I-39]	100%
CCSc1cccc(Cl)c1S(=O)(=O)NC(=O)c1cc2cc(C(F)(F)F)ccn2n1 [Example I-40]	100%
CC(C)Sc1cccc(Cl)c1S(=O)(=O)NC(=O)c1cc2cc(C(F)(F)F)ccn2n1 [Example I-41]	100%
CC(C)Nc1cccc(F)c1S(=O)(=O)NC(=O)c1cc2cc(C(F)(F)F)ccn2n1 [Example I-42]	100%
O=C(NS(=O)(=O)c1c(F)cccc1Cl)c1cc2cc(C(F)(F)F)ccn2n1 [Example I-43]	100%
CCOc1ccc(Cl)c(S(=O)(=O)NC(=O)c2cc3cc(C(F)(F)F)cc(Cl)n3n2)c1 [Example I-44]	90%
CCCOc1ccc(Cl)c(S(=O)(=O)NC(=O)c2cc3cc(C(F)(F)F)cc(Cl)n3n2)c1 [Example I-45]	100%
COc1ccc(Cl)c(S(=O)(=O)NC(=O)c2cc3cc(Cl)cc(Cl)n3n2)c1 [Example I-49]	90%
O=C(NS(=O)(=O)c1cc(Cl)ccc1Cl)c1cc2ccc(C(F)(F)F)cn2n1 [Example I-51]	90%
O=C(NS(=O)(=O)c1c(Cl)cccc1Cl)c1cc2ccc(C(F)(F)F)cn2n1 [Example I-52]	90%
CCOc1ccc(Cl)c(S(=O)(=O)NC(=O)c2cc3cc(Cl)cc(Cl)n3n2)c1 [Example I-57]	100%
CCCOc1ccc(Cl)c(S(=O)(=O)NC(=O)c2cc3cc(Cl)cc(Cl)n3n2)c1 [Example I-58]	100%

SMILES	nematicidal activity on the basis of the percentage of gall formation
CCc1ccc(Cl)c(S(=O)(=O)NC(=O)c2cc3cc(Cl)cc(Cl)n3n2)c1 [Example I-59]	100%
CSc1ccc(Cl)c(S(=O)(=O)NC(=O)c2cc3cc(Cl)cc(Cl)n3n2)c1 [Example I-60]	100%
CCc1ccc(Cl)c(S(=O)(=O)NC(=O)c2cc3cc(C(F)(F)F)cc(Cl)n3n2)c1 [Example I-62]	100%
CCSc1cccc(Cl)c1S(=O)(=O)NC(=O)c1cc2cc(C(F)(F)F)cc(Cl)n2n1 [Example I-63]	100%
CC(C)Sc1cccc(Cl)c1S(=O)(=O)NC(=O)c1cc2cc(C(F)(F)F)cc(Cl)n2n1 [Example I-64]	100%
O=C(NS(=O)(=O)c1c(F)cccc1Cl)c1cc2cc(C(F)(F)F)cc(Cl)n2n1 [Example I-65]	100%
CC(C)Nc1cccc(F)c1S(=O)(=O)NC(=O)c1cc2cc(Cl)cc(Cl)n2n1 [Example I-66]	90%
O=C(NS(=O)(=O)c1c(F)cccc1Cl)c1cc2cc(Cl)cc(Cl)n2n1 [Example I-67]	90%
COc1ccc(F)c(S(=O)(=O)NC(=O)c2cc3cc(Cl)cc(Cl)n3n2)c1 [Example I-68]	100%
COc1ccc(Br)c(S(=O)(=O)NC(=O)c2cc3cc(Cl)cc(Cl)n3n2)c1 [Example I-69]	100%
COc1ccc(Br)c(S(=O)(=O)NC(=O)c2cc3cc(C(F)(F)F)cc(Cl)n3n2)c1 [Example I-70]	100%
CSc1cccc(Cl)c1S(=O)(=O)NC(=O)c1cc2cc(C(F)(F)F)cc(Cl)n2n1 [Example I-71]	100%
O=C(NS(=O)(=O)c1cc(C(F)(F)F)ccc1Cl)c1cc2cc(C(F)(F)F)cc(Cl)n2n1 [Example I-72]	100%
O=C(NS(=O)(=O)c1cc(C(F)(F)F)ccc1Br)c1cc2cc(C(F)(F)F)ccn2n1 [Example I-73]	100%
COc1ccc(F)c(S(=O)(=O)NC(=O)c2cc3cc(C(F)(F)F)cc(Cl)n3n2)c1 [Example I-74]	100%
CCc1ccc(C)c(S(=O)(=O)NC(=O)c2cc3cc(Cl)cc(Cl)n3n2)c1 [Example I-75]	100%
CSc1cccc(Cl)c1S(=O)(=O)NC(=O)c1cc2cc(Cl)cc(Cl)n2n1 [Example I-76]	90%
CCc1ccc(C)c(S(=O)(=O)NC(=O)c2cc3cc(C(F)(F)F)cc(Cl)n3n2)c1 [Example I-77]	100%
CCc1ccc(C)c(S(=O)(=O)NC(=O)c2cc3cc(C(F)(F)F)ccn3n2)c1 [Example I-78]	100%
